# Assay results: patent EP3481220B1, “SWEET RAPESEED PROTEIN ISOLATE AND PROCESS FOR OBTAINING IT” (DSM IP Assets B.V., priority 2016, dated 2018)
# Assays:
# [1] = Equal sweetness, sensory panel, versus sucrose solutions; type: in vivo; details: scored against the reference = 50, line scale 0-100
# Excerpt: The flavor characteristics can be evaluated by a sensory panel using techniques known in the art. Investigating the effects of flavor, mouthfeel and aftertaste requires an extended evaluation of the products and this was done by using Quantitative Descriptive Analysis (QDA). Therefore, a sensory panel assessed the protein products taking in account Good Sensory Practices. During the QDA measurement the intensities of the attributes were obtained by the Fizz sensory data acquisition system, using unstructured line scales ranging from 0-100. The products were evaluated twice with 11 panel members. The products were given one-by-one to the panel members. The products were given in a white polystyrene cup with a white polystyrene spoon in order to prevent sedimentation during tasting. Data were analyzed using SenPaq (Ql-statistics).
# The panelists received a reference sample (2 wt.% rapeseed protein isolate in water) with a potency designated by an arbitrary sweetness value of 50 (middle of the scale), followed by several sucrose solutions coded and balanced with potencies higher than or lower than the reference. Panelists scored for example a sample that is perceived as twice as strong as the reference with a score of 100, half the sweetness was given a value of 25. Scores were gathered by means of FIZZ data acquisition on unstructured line scales ranging from 0-100. The various concentrations of sucrose were first determined by a pretest.
# To identify the sweetness character (i.e. initial sweetness, lingering) of 2% rapeseed protein isolate in water compared to sucrose solutions (10 g/l, 20 g/l, 30 g/l, 40 g/l and 50 g/l) the samples were taken into the mouth on instruction of the panel leader. Directly the intensity of the sweetness was scored. After three seconds the sample was swallowed and the intensity was scored again, followed by scoring at 5, 10, 20, 30, 60, 90 and 120 seconds after swallowing. Intensity scores were given on unstructured 0-100 line scales in FIZZ. The samples were evaluated one-by-one in duplicate according to an optimally balanced design. Equal sweetness and sweetness character was assessed by comparing a 2 wt.% aqueous solution of the resultant native rapeseed protein isolate with aqueous sucrose solutions of different strengths at room temperature.
# [2] = Conductivity in aqueous solution (conductivity meter); type: physicochemical; details: aqueous 5 g/l solution; given for comparison
Structure (SMILES),Relative Sweetness ([1]; 10 g/l aqueous solution),Relative Sweetness ([1]; 20 g/l aqueous solution),Relative Sweetness ([1]; 30 g/l aqueous solution),Relative Sweetness ([1]; 40 g/l aqueous solution),Relative Sweetness ([1]; 50 g/l aqueous solution),conductivity [2]
OC[C@H]1O[C@@](CO)(O[C@H]2O[C@H](CO)[C@@H](O)[C@H](O)[C@H]2O)[C@@H](O)[C@@H]1O [Sucrose],35,49,68,70,78,–
[Cl-].[Na+] [sodium chloride],–,–,–,–,–,"around 9,400 µS/cm"
